Data from paper PMC6348924, “Detection of Active Caspase-3 in Mouse Models of Stroke and Alzheimer's Disease with a Novel Dual Positron Emission Tomography/Fluorescent Tracer [^68Ga]Ga-TC3-OGDOTA” (Contrast Media & Molecular Imaging, 2019).

Tested on: primary cortical neuronal cultures treated with CPT
Experiment: Ga-TC3-OGDOTA accumulation in CPT toxicity assay
Type: cell-based, mouse
Settings: 10 μM CPT, 24 h
Description: For the in vitro cell culture studies, primary hippocampal and cortical neuronal cultures were prepared from E17 mouse embryos as described previously and cultured in regular neuronal medium (RNM) containing 1x B27, 0.5 mM glutamine, 0.25% glucose in Neurobasal medium (Invitrogen).
Three different conditions known to induce neuronal apoptosis were used to study Ga-TC3-OGDOTA uptake in cell culture: camptothecin (CPT) toxicity, OGD, and AβO toxicity. […] For the CPT toxicity assay, cortical neurons were treated with 0 (control) or 10 μM CPT (Sigma-Aldrich) for 24 h at normal conditions (5% CO2, 37°C). After that the cultures were washed with RNM and incubated with various concentrations of Ga-TC3-OGDOTA for 7 h, followed by either direct live imaging or fixation with 4% paraformaldehyde (PFA) in PBS for staining. […]
For coimaging of Hoechst 33342 (Hoechst), 4′,6′-Diamidino-2-Phenylindole (DAPI), Oregon Green and CC3, fixed cultures were immunostained with anti-CC3 antibody (1 : 500, Cell Signaling, cat#9661) followed by antirabbit secondary antibody and DAPI or Hoechst. […] Cells positive for tracer, CC3, and total number of cells were counted using the ImageJ (NIH, Bethesda, MD) Cell Counter plugin and their ratio was compared between the treatments.

CC[C@@]1(O)C(=O)OCc2c1cc1n(c2=O)Cc2cc3ccccc3nc2-1 [CPT, camptothecin]
effect on number of apoptotic neurons in the culture: elevated
